target: T1, rat B1R (bradykinin receptor 1) (Rattus norvegicus, UniProt P97583); experiment: FLIPR Ca2+ assay (Fluo-4) on CHO K1 cells stably transfected with the B1R gene of the rat (rB1R cells): % inhibition at 10 μM / IC50, agonist Des-Arg9-bradykinin; type: cell-based; settings: CHO-K1, rat B1R
T1 construct: expressed in transfected cells; host or cells: CHO K1 cells
T1 sequence (P97583 1-337): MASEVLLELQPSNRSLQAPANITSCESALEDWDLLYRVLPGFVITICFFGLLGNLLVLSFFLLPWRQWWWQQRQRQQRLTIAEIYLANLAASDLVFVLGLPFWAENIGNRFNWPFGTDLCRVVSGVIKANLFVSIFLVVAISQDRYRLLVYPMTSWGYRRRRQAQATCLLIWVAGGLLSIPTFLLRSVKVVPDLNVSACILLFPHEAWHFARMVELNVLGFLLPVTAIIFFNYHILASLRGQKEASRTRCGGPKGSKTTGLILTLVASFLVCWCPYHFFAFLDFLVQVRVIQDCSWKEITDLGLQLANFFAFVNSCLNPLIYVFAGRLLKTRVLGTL
How it was run: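 Stable CHO K1 lines, Fluo-4 dye, probenecid-containing buffer. Cpd 10 μM or dose range, 10–20 min, then EC80 agonist (h: Lys-Des-Arg9-BK; r: Des-Arg9-BK). Readout peak FC; % inhibition vs max; IC50 from n=2–3, N≥2.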

Row | SMILES | inhibition at 10 µM [%]
1 | O=C(NC1CCc2ccc(C(=O)N3CCC4(CCN(Cc5ccc[nH]5)CC4)CC3)cc21)c1cc(Cl)ccc1F (stereo not shown) [IND_CC-624, 5-Chloro-2-fluoro-N-[6-[9-(1H-pyrrol-2-yl-methyl)-3,9-diazaspiro[5.5]undecane-3-carbonyl]-2,3-dihydro-1H-inden-1-yl]-benzamide] | 62
2 | O=C(NC1CCc2ccc(C(=O)N3CCC4(CCN(Cc5c[nH]cn5)CC4)CC3)cc21)c1cc(Cl)ccc1F (stereo not shown) [IND_CC-625, 5-Chloro-2-fluoro-N-[6-[9-(1H-imidazol-4-yl-methyl)-3,9-diazaspiro[5.5]undecane-3-carbonyl]-2,3-dihydro-1H-inden-1-yl]-benzamide] | 50
3 | O=C(NC1CCc2ccc(C(=O)N3CCC4(CCN(Cc5ccccn5)CC4)CC3)cc21)c1cc(Cl)ccc1F (stereo not shown) [IND_CC-626, 5-Chloro-2-fluoro-N-[6-[9-(pyridin-2-yl-methyl)-3,9-diazaspiro[5.5]undecane-3-carbonyl]-2,3-dihydro-1H-inden-1-yl]-benzamide] | 55
4 | O=C(NC1CCc2ccc(C(=O)N3CCC4(CCN(Cc5ccncc5)CC4)CC3)cc21)c1cc(Cl)ccc1F (stereo not shown) [IND_CC-627, 5-Chloro-2-fluoro-N-[6-[9-(pyridin-4-yl-methyl)-3,9-diazaspiro[5.5]undecane-3-carbonyl]-2,3-dihydro-1H-inden-1-yl]-benzamide] | 54
5 | O=C(NC1CCc2ccc(C(=O)N3CCC4(CCN(Cc5ccc(F)c(F)c5)CC4)CC3)cc21)c1cc(Cl)ccc1F (stereo not shown) [IND_CC-628, 5-Chloro-N-[6-[9-[(3,4-difluoro-phenyl)-methyl]-3,9-diazaspiro[5.5]undecane-3-carbonyl]-2,3-dihydro-1H-inden-1-yl]-2-fluoro-benzamide] | 63
6 | O=C(NC1CCc2ccc(C(=O)N3CCC4(CCN(Cc5ccc(F)cc5F)CC4)CC3)cc21)c1cc(Cl)ccc1F (stereo not shown) [IND_CC-629, 5-Chloro-N-[6-[9-[(2,4-difluoro-phenyl)-methyl]-3,9-diazaspiro[5.5]undecane-3-carbonyl]-2,3-dihydro-1H-inden-1-yl]-2-fluoro-benzamide] | 71
7 | COc1ccc(CN2CCC3(CC2)CCN(C(=O)c2ccc4c(c2)C(NC(=O)c2cc(Cl)ccc2F)CC4)CC3)cc1F (stereo not shown) [IND_CC-630, 5-Chloro-2-fluoro-N-[6-[9-[(3-fluoro-4-methoxy-phenyl)-methyl]-3,9-diazaspiro[5.5]undecane-3-carbonyl]-2,3-dihydro-1H-inden-1-yl]-benzamide] | 53
8 | O=C(NC1CCc2ccc(C(=O)N3CCC4(CCN(Cc5c[nH]cn5)CC4)C3)cc21)c1cc(C(F)(F)F)ccc1Cl (stereo not shown) [IND_CC-631, 2-Chloro-N-[6-[8-(1H-imidazol-4-yl-methyl)-2,8-diazaspiro[4.5]decane-2-carbonyl]-2,3-dihydro-1H-inden-1-yl]-5-(trifluoromethyl)-benzamide] | 57
9 | O=C(NC1CCc2ccc(C(=O)N3CCC4(CCN(Cc5c(F)cccc5F)CC4)C3)cc21)c1cc(C(F)(F)F)ccc1Cl (stereo not shown) [IND_CC-632, 2-Chloro-N-[6-[8-[(2,6-difluoro-phenyl)-methyl]-2,8-diazaspiro[4.5]decane-2-carbonyl]-2,3-dihydro-1H-inden-1-yl]-5-(trifluoromethyl)-benzamide] | 64
10 | O=C(NC1CCc2ccc(C(=O)N3CCC4(CCN(Cc5ccc(F)c(F)c5)CC4)C3)cc21)c1cc(C(F)(F)F)ccc1Cl (stereo not shown) [IND_CC-633, 2-Chloro-N-[6-[8-[(3,4-difluoro-phenyl)-methyl]-2,8-diazaspiro[4.5]decane-2-carbonyl]-2,3-dihydro-1H-inden-1-yl]-5-(trifluoromethyl)-benzamide] | 86
11 | O=C(NC1CCc2ccc(C(=O)N3CCC4(CCN(Cc5cc(F)ccc5F)CC4)C3)cc21)c1cc(C(F)(F)F)ccc1Cl (stereo not shown) [IND_CC-634, 2-Chloro-N-[6-[8-[(2,5-difluoro-phenyl)-methyl]-2,8-diazaspiro[4.5]decane-2-carbonyl]-2,3-dihydro-1H-inden-1-yl]-5-(trifluoromethyl)-benzamide] | 75
12 | O=C(NC1CCc2ccc(C(=O)N3CCC4(CCN(Cc5ccc(F)cc5F)CC4)C3)cc21)c1cc(C(F)(F)F)ccc1Cl (stereo not shown) [IND_CC-635, 2-Chloro-N-[6-[8-[(2,4-difluoro-phenyl)-methyl]-2,8-diazaspiro[4.5]decane-2-carbonyl]-2,3-dihydro-1H-inden-1-yl]-5-(trifluoromethyl)-benzamide] | 72
13 | COc1ccc(CN2CCC3(CC2)CCN(C(=O)c2ccc4c(c2)C(NC(=O)c2cc(C(F)(F)F)ccc2Cl)CC4)C3)cc1F (stereo not shown) [IND_CC-636, 2-Chloro-N-[6-[8-[(3-fluoro-4-methoxy-phenyl)-methyl]-2,8-diazaspiro[4.5]-decane-2-carbonyl]-2,3-dihydro-1H-inden-1-yl]-5-(trifluoromethyl)-benzamide] | 79
14 | COc1cccc(F)c1CN1CCC2(CC1)CCN(C(=O)c1ccc3c(c1)C(NC(=O)c1cc(C(F)(F)F)ccc1Cl)CC3)C2 (stereo not shown) [IND_CC-637, 2-Chloro-N-[6-[8-[(2-fluoro-6-methoxy-phenyl)-methyl]-2,8-diazaspiro[4.5]-decane-2-carbonyl]-2,3-dihydro-1H-inden-1-yl]-5-(trifluoromethyl)-benzamide] | 69
15 | O=C(NC1CCc2ccc(C(=O)N3CCC4(CCN(Cc5ccc[nH]5)CC4)CC3)cc21)c1cc(C(F)(F)F)ccc1Cl (stereo not shown) [IND_CC-638, 2-Chloro-N-[6-[9-(1H-pyrrol-2-yl-methyl)-3,9-diazaspiro[5.5]undecane-3-carbonyl]-2,3-dihydro-1H-inden-1-yl]-5-(trifluoromethyl)-benzamide] | 80
16 | O=C(NC1CCc2ccc(C(=O)N3CCC4(CCN(Cc5c[nH]cn5)CC4)CC3)cc21)c1cc(C(F)(F)F)ccc1Cl (stereo not shown) [IND_CC-639, 2-Chloro-N-[6-[9-(1H-imidazol-4-yl-methyl)-3,9-diazaspiro[5.5]undecane-3-carbonyl]-2,3-dihydro-1H-inden-1-yl]-5-(trifluoromethyl)-benzamide] | 78
17 | O=C(NC1CCc2ccc(C(=O)N3CCC4(CCN(Cc5ccccn5)CC4)CC3)cc21)c1cc(C(F)(F)F)ccc1Cl (stereo not shown) [IND_CC-640, 2-Chloro-N-[6-[9-(pyridin-2-yl-methyl)-3,9-diazaspiro[5.5]undecane-3-carbonyl]-2,3-dihydro-1H-inden-1-yl]-5-(trifluoromethyl)-benzamide] | 73
18 | O=C(NC1CCc2ccc(C(=O)N3CCC4(CCN(Cc5ccncc5)CC4)CC3)cc21)c1cc(C(F)(F)F)ccc1Cl (stereo not shown) [IND_CC-641, 2-Chloro-N-[6-[9-(pyridin-4-yl-methyl)-3,9-diazaspiro[5.5]undecane-3-carbonyl]-2,3-dihydro-1H-inden-1-yl]-5-(trifluoromethyl)-benzamide] | 74
19 | O=C(NC1CCc2ccc(C(=O)N3CCC4(CCN(Cc5cccnc5)CC4)CC3)cc21)c1cc(C(F)(F)F)ccc1Cl (stereo not shown) [IND_CC-642, 2-Chloro-N-[6-[9-(pyridin-3-yl-methyl)-3,9-diazaspiro[5.5]undecane-3-carbonyl]-2,3-dihydro-1H-inden-1-yl]-5-(trifluoromethyl)-benzamide] | 77
20 | Cn1cccc1CN1CCC2(CC1)CCN(C(=O)c1ccc3c(c1)C(NC(=O)c1cc(C(F)(F)F)ccc1Cl)CC3)CC2 (stereo not shown) [IND_CC-643, 2-Chloro-N-[6-[9-[(1-methyl-1H-pyrrol-2-yl)-methyl]-3,9-diazaspiro[5.5]-undecane-3-carbonyl]-2,3-dihydro-1H-inden-1-yl]-5-(trifluoromethyl)benzamide] | 78
21 | O=C(NC1CCc2ccc(C(=O)N3CCC4(CCN(Cc5c(F)cccc5F)CC4)CC3)cc21)c1cc(C(F)(F)F)ccc1Cl (stereo not shown) [IND_CC-644, 2-Chloro-N-[6-[9-[(2,6-difluoro-phenyl)-methyl]-3,9-diazaspiro[5.5]undecane-3-carbonyl]-2,3-dihydro-1H-inden-1-yl]-5-(trifluoromethyl)-benzamide] | 59
22 | O=C(NC1CCc2ccc(C(=O)N3CCC4(CCN(Cc5ccc(F)c(F)c5)CC4)CC3)cc21)c1cc(C(F)(F)F)ccc1Cl (stereo not shown) [IND_CC-645, 2-Chloro-N-[6-[9-[(3,4-difluoro-phenyl)-methyl]-3,9-diazaspiro[5.5]undecane-3-carbonyl]-2,3-dihydro-1H-inden-1-yl]-5-(trifluoromethyl)-benzamide] | 78
23 | O=C(NC1CCc2ccc(C(=O)N3CCC4(CCN(Cc5cc(F)ccc5F)CC4)CC3)cc21)c1cc(C(F)(F)F)ccc1Cl (stereo not shown) [IND_CC-646, 2-Chloro-N-[6-[9-[(2,5-difluoro-phenyl)-methyl]-3,9-diazaspiro[5.5]undecane-3-carbonyl]-2,3-dihydro-1H-inden-1-yl]-5-(trifluoromethyl)-benzamide] | 66
24 | O=C(NC1CCc2ccc(C(=O)N3CCC4(CCN(Cc5ccc(F)cc5F)CC4)CC3)cc21)c1cc(C(F)(F)F)ccc1Cl (stereo not shown) [IND_CC-647, 2-Chloro-N-[6-[9-[(2,4-difluoro-phenyl)-methyl]-3,9-diazaspiro[5.5]undecane-3-carbonyl]-2,3-dihydro-1H-inden-1-yl]-5-(trifluoromethyl)-benzamide] | 73
25 | COc1ccc(CN2CCC3(CC2)CCN(C(=O)c2ccc4c(c2)C(NC(=O)c2cc(C(F)(F)F)ccc2Cl)CC4)CC3)cc1F (stereo not shown) [IND_CC-648, 2-Chloro-N-[6-[9-[(3-fluoro-4-methoxy-phenyl)-methyl]-3,9-diazaspiro[5.5]-undecane-3-carbonyl]-2,3-dihydro-1H-inden-1-yl]-5-(trifluoromethyl)benzamide] | 78

— patent US8455475B2 (Gruenenthal GmbH, priority 2009, dated 2013)
